Assay results: patent US6737383B1, “Herbicidal oxadiazolidines” (priority 1999, dated 2004)

Assays:
corn = assay: Test B pre/postemergence corn; format: in vivo, Zea mays
How it was run: (§1)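 Test chemicals in a non-phytotoxic solvent mixture with surfactant were sprayed preemergence onto planted seeds and postemergence onto plants 2 to 18 cm tall (1- to 4-leaf stage). After twelve to sixteen days in a greenhouse, injury was visually rated against untreated controls from 0 (no effect) to 10 (complete control).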

soybean = assay: Test B pre/postemergence soybean; format: in vivo, Glycine max
How it was run: as §1

giant foxtail = assay: Test B pre/postemergence giant foxtail; format: in vivo, Setaria faberii
How it was run: as §1

rape = assay: Test B pre/postemergence rape; format: in vivo, Brassica napus
How it was run: as §1

bedstraw = assay: Test B pre/postemergence bedstraw; format: in vivo, Galium aparine
How it was run: as §1

smallflower flatsedge = assay: Test B flood test smallflower flatsedge; format: in vivo, Cyperus difformis
How it was run: (§2)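 Read-out is a visual response score from 0 (no effect) to 10 (complete control), assigned by comparison with untreated controls. Treatment was applied at the 2-leaf stage, and plants stayed in the greenhouse for twelve to sixteen days before scoring.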

cocklebur = assay: Test B pre/postemergence cocklebur; format: in vivo, Xanthium strumarium
How it was run: as §1

bamyardgrass = assay: Test B flood test barnyardgrass; format: in vivo, Echinochloa crus-galli
How it was run: as §2

surinam grass = assay: Test B pre/postemergence surinam grass; format: in vivo, Brachiaria decumbens
How it was run: as §1

purple nutsedge = assay: Test B pre/postemergence purple nutsedge; format: in vivo, Cyperus rotundus
How it was run: as §1

blackgrass = assay: Test B pre/postemergence blackgrass; format: in vivo, Alopecurus myosuroides
How it was run: as §1

wild oat = assay: Test B pre/postemergence wild oat; format: in vivo, Avena fatua
How it was run: as §1

pigweed = assay: Test B pre/postemergence pigweed; format: in vivo, Amaranthus retroflexus
How it was run: as §1

sugar beet = assay: Test B pre/postemergence sugar beet; format: in vivo, Beta vulgaris
How it was run: as §1

rice = assay: Test B flood test rice; format: in vivo, Oryza sativa
How it was run: as §2

velvetleaf = assay: Test B pre/postemergence velvetleaf; format: in vivo, Abutilon theophrasti
How it was run: as §1

duck salad = assay: Test B flood test duck salad; format: in vivo, Heteranthera limosa
How it was run: as §2

morningglory = assay: Test B pre/postemergence morningglory; format: in vivo, Ipomoea hederacea
How it was run: as §1

crabgrass = assay: Test B pre/postemergence crabgrass; format: in vivo, Digitaria sanguinalis
How it was run: as §1

wheat = assay: Test B pre/postemergence wheat; format: in vivo, Triticum aestivum
How it was run: as §1

[1] = Preemergence, Rate 62 g/ha, scale of 0 to 10 where 0 is no effect and 10 is complete control
[2] = Preemergence, Rate 250 g/ha, scale of 0 to 10 where 0 is no effect and 10 is complete control
[3] = Preemergence, Rate 500 g/ha, scale of 0 to 10 where 0 is no effect and 10 is complete control
[4] = Rate 62 g/ha, Postemergence, scale of 0 to 10 where 0 is no effect and 10 is complete control
[5] = Rate 125 g/ha, Postemergence, scale 0 to 10
[6] = Rate 125 g/ha, Preemergence, scale of 0 to 10 where 0 is no effect and 10 is complete control
[7] = Rate 500 g/ha, Postemergence, scale 0 to 10, 0 no effect, 10 complete control
[8] = Rate 62 g/ha, headed Pre-emergence (flood test species), scale 0 to 10 (0 no effect, 10 complete control)
[9] = Rate 125 g/ha, Pre-emergence, flood test species, scale 0 to 10 where 0 is no effect and 10 is complete control
[10] = Rate 250 g/ha, Pre-emergence, flood-test species, scale 0 to 10, 0 is no effect, 10 is complete control
[11] = Rate 500 g/ha, Pre-emergence, flood test species, scale 0 to 10 (0 no effect, 10 complete control)

## C=CCn1c(=O)on(C(=O)N(c2ccc(F)cc2)C2CCCCCC2)c1=O [Compound 249]
corn; [1]
  Corn plant response rating: 0
corn; [2]
  Corn plant response rating: 0
corn; [3]
  Plant response rating, Corn: 0
corn; [4]
  Corn plant response rating: 0
corn; [5]
  Corn plant response rating: 0
corn; [6]
  Corn plant response rating: 0
corn; Rate 250 g/ha, Postemergence
  Plant response rating (0 to 10; 0 is no effect, 10 is complete control), Corn: 0
corn; [7]
  Corn plant response rating: 0
soybean; [1]
  Soybean plant response rating: 0
soybean; [2]
  Soybean plant response rating: 0
soybean; [3]
  Plant response rating, Soybean: 0
soybean; [6]
  Soybean plant response rating: 0
soybean; [7]
  Soybean plant response rating: 4
Giant foxtail; [1]
  Giant foxtail plant response rating: 0
Giant foxtail; [2]
  Giant foxtail plant response rating: 3
Giant foxtail; [3]
  Plant response rating, Giant foxtail: 5
Giant foxtail; [6]
  Giant foxtail plant response rating: 0
Giant foxtail; Rate 250 g/ha, Postemergence
  Plant response rating (0 to 10; 0 is no effect, 10 is complete control), Giant foxtail: 0
Giant foxtail; [7]
  Giant foxtail plant response rating: 0
rape; [1]
  Rape plant response rating: 0
rape; [2]
  Rape plant response rating: 0
rape; [3]
  Plant response rating, Rape: 0
rape; [6]
  Rape plant response rating: 0
rape; Rate 250 g/ha, Postemergence
  Plant response rating (0 to 10; 0 is no effect, 10 is complete control), Rape: 0
rape; [7]
  Rape plant response rating: 0
bedstraw; [1]
  Bedstraw plant response rating: 0
bedstraw; [2]
  Bedstraw plant response rating: 0
bedstraw; [3]
  Plant response rating, Bedstraw: 0
bedstraw; [4]
  Bedstraw plant response rating: 0
bedstraw; [5]
  Bedstraw plant response rating: 0
bedstraw; Rate 250 g/ha, Postemergence
  Plant response rating (0 to 10; 0 is no effect, 10 is complete control), Bedstraw: 0
bedstraw; [7]
  Bedstraw plant response rating: 0
Smallflower flatsedge; [8]
  S. Flatsedge plant response rating: 0
Smallflower flatsedge; [9]
  S. Flatsedge plant response rating: 0
Smallflower flatsedge; [10]
  S. Flatsedge plant response rating: 0
Smallflower flatsedge; [11]
  S. Flatsedge plant response rating: 0
cocklebur; [1]
  Cocklebur plant response rating: 0
cocklebur; [2]
  Cocklebur plant response rating: 0
cocklebur; [3]
  Plant response rating, Cocklebur: 0
cocklebur; [4]
  Cocklebur plant response rating: 0
cocklebur; [5]
  Cocklebur plant response rating: 0
cocklebur; [6]
  Cocklebur plant response rating: 0
cocklebur; Rate 250 g/ha, Postemergence
  Plant response rating (0 to 10; 0 is no effect, 10 is complete control), Cocklebur: 0
cocklebur; [7]
  Cocklebur plant response rating: 0
bamyardgrass; [8]
  Barnyardgrass plant response rating: 0
bamyardgrass; [9]
  Barnyardgrass plant response rating: 0
bamyardgrass; [10]
  Barnyardgrass plant response rating: 0
bamyardgrass; [11]
  Barnyardgrass plant response rating: 0
Surinam grass; [1]
  B. signalgrass plant response rating: 0
Surinam grass; [2]
  B. signalgrass plant response rating: 0
Surinam grass; [3]
  Plant response rating, B. signalgrass: 0
Surinam grass; [4]
  B. signalgrass plant response rating: 0
Surinam grass; Rate 125 g/ha, Postemergence, scale 0 (no effect) to 10 (complete control)
  B. signalgrass plant response rating: 0
Surinam grass; [6]
  B. signalgrass plant response rating: 0
Surinam grass; Rate 250 g/ha, Postemergence
  Plant response rating (0 to 10; 0 is no effect, 10 is complete control), B. signalgrass: 0
Surinam grass; [7]
  B. signalgrass plant response rating: 0
Purple nutsedge; [1]
  Nutsedge plant response rating: 0
Purple nutsedge; [2]
  Nutsedge plant response rating: 0
Purple nutsedge; [3]
  Plant response rating, Nutsedge: 0
Purple nutsedge; [6]
  Nutsedge plant response rating: 0
Purple nutsedge; Rate 250 g/ha, Postemergence
  Plant response rating (0 to 10; 0 is no effect, 10 is complete control), Nutsedge: 0
Purple nutsedge; [7]
  Nutsedge plant response rating: 0
blackgrass; [1]
  Blackgrass plant response rating: 0
blackgrass; [2]
  Blackgrass plant response rating: 0
blackgrass; [3]
  Plant response rating, Blackgrass: 0
blackgrass; [4]
  Blackgrass plant response rating: 0
blackgrass; [5]
  Blackgrass plant response rating: 0
blackgrass; [6]
  Blackgrass plant response rating: 0
blackgrass; Rate 250 g/ha, Postemergence
  Plant response rating (0 to 10; 0 is no effect, 10 is complete control), Blackgrass: 0
blackgrass; [7]
  Blackgrass plant response rating: 0
Wild oat; [1]
  Wild oats plant response rating: 0
Wild oat; [2]
  Wild oats plant response rating: 0
Wild oat; [3]
  Plant response rating, Wild oats: 0
Wild oat; [6]
  Wild oats plant response rating: 0
Wild oat; [7]
  Wild oats plant response rating: 0
pigweed; [1]
  Redroot pigweed plant response rating: 0
pigweed; [2]
  Redroot pigweed plant response rating: 0
pigweed; [3]
  Plant response rating, Redroot pigweed: 0
pigweed; [6]
  Redroot pigweed plant response rating: 0
pigweed; Rate 250 g/ha, Postemergence
  Plant response rating (0 to 10; 0 is no effect, 10 is complete control), Redroot pigweed: 0
pigweed; [7]
  Redroot pigweed plant response rating: 3
Sugar beet; [1]
  Sugarbeets plant response rating: 0
Sugar beet; [2]
  Sugarbeets plant response rating: 0
Sugar beet; [3]
  Plant response rating, Sugarbeets: 0
Sugar beet; [6]
  Sugarbeets plant response rating: 0
Sugar beet; [7]
  Sugarbeets plant response rating: 2
rice; [8]
  Rice plant response rating: 0
rice; [9]
  Rice plant response rating: 0
rice; [10]
  Rice plant response rating: 0
rice; [11]
  Rice plant response rating: 0
velvetleaf; [1]
  Velvetleaf plant response rating: 0
velvetleaf; [2]
  Velvetleaf plant response rating: 0
velvetleaf; [3]
  Plant response rating, Velvetleaf: 0
velvetleaf; [6]
  Velvetleaf plant response rating: 0
velvetleaf; [7]
  Velvetleaf plant response rating: 0
Duck salad; [8]
  Ducksalad plant response rating: 0
Duck salad; [9]
  Ducksalad plant response rating: 0
Duck salad; [10]
  Ducksalad plant response rating: 0
Duck salad; [11]
  Ducksalad plant response rating: 0
morningglory; [1]
  Morningglory plant response rating: 0
morningglory; [2]
  Morningglory plant response rating: 0
morningglory; [3]
  Plant response rating, Morningglory: 0
morningglory; [6]
  Morningglory plant response rating: 0
morningglory; Rate 250 g/ha, Postemergence
  Plant response rating (0 to 10; 0 is no effect, 10 is complete control), Morningglory: 0
morningglory; [7]
  Morningglory plant response rating: 3
crabgrass; [1]
  Crabgrass plant response rating: 0
crabgrass; [2]
  Crabgrass plant response rating: 0
crabgrass; [3]
  Plant response rating, Crabgrass: 2
crabgrass; [6]
  Crabgrass plant response rating: 0
crabgrass; Rate 250 g/ha, Postemergence
  Plant response rating (0 to 10; 0 is no effect, 10 is complete control), Crabgrass: 0
crabgrass; [7]
  Crabgrass plant response rating: 0
wheat; [1]
  Wheat plant response rating: 0
wheat; [2]
  Wheat plant response rating: 0
wheat; [3]
  Plant response rating, Wheat: 0
wheat; [6]
  Wheat plant response rating: 0
wheat; [7]
  Wheat plant response rating: 0
